Measured values published in patent US6472348B1, “Pyridone derivatives and herbicides” (Kumiai Chemical Industry Co., Ltd., priority 1996, dated 2002).

What was measured:
Assay type in all cases: in vivo
[1] = system: Digitaria ciliaris (Di); test: Test Example 2: herbicidal effects by upland field soil treatment; settings: 100 g of the active ingredient per 10 ares;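 also: grade of growth control; 5 = at least 90%; 4 = 70 to 90%; 3 = 50 to 70%; 2 = 30 to 50%; 1 = 10 to 30%; 0 = under 10%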
Text: (§1) (Test on Herbicidal Effects by Upland Field Soil Treatment)

[2] = system: pale smartweed (Po); test: as above; settings: 100 g of the active ingredient per 10 ares
Text: as §1

[3] = system: slender amaranth (Am); test: as above; settings: 100 g of the active ingredient per 10 ares
Text: as §1

[4] = system: common lambsquarters (Ch); test: as above; settings: 100 g of the active ingredient per 10 ares
Text: as §1

[5] = system: barnyardgrass (Ec); test: as above; settings: 100 g of the active ingredient per 10 ares;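 also: grade of growth control; 5 = at least 90%; 4 = 70 to 90%; 3 = 50 to 70%; 2 = 30 to 50%; 1 = 10 to 30%; 0 = under 10%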
Text: as §1

[6] = system: China jute (Ab); test: Test Example 7: crop plant selectivity by upland field soil treatment (corn), herbicidal effects; design: scale not given here; settings: 21st day after application
How it was run: (§2)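 Sand-filled pot; corn plus weeds sown, soil-covered. Post-application greenhouse culture. Herbicidal effect/phytotoxicity rated day 21 per standard scale.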

[7] = system: pale smartweed (Po); test: as above; design: scale not given here; settings: 21st day after application
How it was run: as §2

[8] = system: slender amaranth (Am); test: as above; design: scale not given here; settings: 21st day after application
How it was run: as §2

[9] = system: green foxtail (Se); test: as above; design: scale not given here; settings: 21st day after application
How it was run: as §2

[10] = system: common lambsquarters (Ch); test: as above; design: scale not given here; settings: 21st day after application
How it was run: as §2

[11] = evaluated on the 21st day after application
[12] = 21st day after the application, index 0-5 of Table 47

Structure (SMILES)	Herbicidal effects Di [1, 11]	Herbicidal effects Po [2, 11]	Herbicidal effects Am [3, 11]	Herbicidal effects Ch [4, 11]	Herbicidal effects Ec [5, 11]	Herbicidal effects Ab ([6]; dose 1.6 g ai/10a)	Herbicidal effects Po ([7]; dose 1.6 g ai/10a)	Herbicidal effects Am ([8]; dose 1.6 g ai/10a)	Herbicidal effects Se ([9]; dose 1.6 g ai/10a)	Herbicidal effects Ch ([10]; dose 1.6 g ai/10a)	Herbicidal effects Di [1, 12]	Herbicidal effects Po [2, 12]	Herbicidal effects Am [3, 12]	Herbicidal effects Ch [4, 12]	Herbicidal effects Ec [5, 12]	Herbicidal effects Ab ([6]; dose 6.3 g ai/10a)	Herbicidal effects Po ([7]; dose 6.3 g ai/10a)	Herbicidal effects Am ([8]; dose 6.3 g ai/10a)	Herbicidal effects Se ([9]; dose 6.3 g ai/10a)	Herbicidal effects Ch ([10]; dose 6.3 g ai/10a)
C#CC(C)Oc1cc(-c2cn(C)c(C(F)(F)F)cc2=O)c(F)cc1Cl (racemic) [Compound 6-10]	5	5	5	5	5															
COc1cc(-c2ccc(C(F)(F)F)n(C)c2=O)c(F)cc1Cl [1-15]						5	5	5	5	5	5	5	5	5	5					
C=CCOc1cc(-c2ccc(C(F)(F)F)n(C)c2=O)c(F)cc1Cl [1-16]						5	5	5	5	5	5	5	5	5	5	5	5	5	5	5
C#CC(C)Oc1cc(-c2ccc(C(F)(F)F)n(C)c2=O)c(F)cc1Cl (stereo not drawn) [1-17]						5	5	5	5	5	5	5	5	5	5	4	5	5	5	5
C#CCOc1cc(-c2ccc(C(F)(F)F)n(C)c2=O)c(F)cc1Cl [1-18]						5	5	5	5	5	5	5	5	5	5	5	5	5	5	5
Cn1c(C(F)(F)F)ccc(-c2cc(OCC#N)c(Cl)cc2F)c1=O [1-25]											5	5	5	5	5	5	5	5	5	5
C#CCOc1cc(-c2ccc(C(F)(F)F)n(C)c2=O)c(Cl)cc1Cl [1-30]						5	5	5	5	5	5	5	5	5	5	5	5	5	5	5
CC(C)Sc1cc(-c2ccc(C(F)(F)F)n(C)c2=O)c(F)cc1Cl [1-43]											5	5	5	5	5	4	5	5	5	5
C#CCSc1cc(-c2ccc(C(F)(F)F)n(C)c2=O)c(F)cc1Cl [1-44]											5	5	5	5	5	5	5	5	5	5
CCOC(=O)c1cc(-c2ccc(C(F)(F)F)n(C)c2=O)c(F)cc1Cl [1-65]						5	5	5	5	5	5	5	5	5	5	5	5	5	5	5
Cc1cc(-c2ccc(C(F)(F)F)n(C)c2=O)c(F)cc1Cl [1-90]						5	5	5	5	5	5	5	5	5	5	5	5	5	5	5
COCSc1cc(-c2ccc(C(F)(F)F)n(C)c2=O)c(F)cc1Cl [1-91]						5	5	5	5	5	5	5	5	5	5	5	5	5	5	5
Cn1c(C(F)(F)F)ccc(-c2cc(Cl)c(Cl)cc2F)c1=O [1-136]						5	5	5	5	5	5	5	5	5	5					
Cn1c(C(F)(F)F)ccc(-c2cc(OCC(F)(F)F)c(Cl)cc2F)c1=O [1-155]						5	5	5	5	5	5	5	5	5	5	5	5	5	5	5
Cn1c(C(F)(F)F)ccc(-c2cc(OCC3CC3)c(Cl)cc2F)c1=O [1-160]											5	5	5	5	5	5	5	5	5	5
Cn1c(C(F)(F)F)ccc(-c2cc(OCCCl)c(Cl)cc2F)c1=O [1-171]	5	5	5	5	5											5	5	5	5	5
C#CCOc1cc(-c2ccc(C(F)(F)F)n(N)c2=O)c(F)cc1Cl [1-178]	5	5	5	5	5	5	5	5	5	5										
COc1cc(-c2ccc(C(F)(F)F)n(N)c2=O)c(F)cc1Cl [1-179]	5	5	5	5	5											5	5	5	5	5
CCOCOc1cc(-c2ccc(C(F)(F)F)n(C)c2=O)c(F)cc1Cl [1-181]	5	5	5	5	5															
C#CC(C)Oc1cc(Cl)cc(F)c1-c1ccc(C(F)(F)F)n(C)c1=O (stereo not drawn) [1′-5]	5	5	5	5	5	5	5	5	4	5						5	5	5	5	5
C=CC(C)Oc1cc(-c2ccc(C(F)(F)F)n(C)c2=O)c(F)cc1Cl (stereo not drawn) [Compound 1-182]	5	5	5	5	5											5	5	5	5	5
C=CCN1C(=O)COc2cc(F)c(-c3ccc(C(F)(F)F)n(C)c3=O)cc21 [Compound 2-7]	5	5	5	5	5															
C#CCN1C(=O)COc2cc(F)c(-c3cn(C)c(C(F)(F)F)cc3=O)cc21 [Compound 7-1]	5	5	5	5	5															
C#CCN1C(=O)COc2cc(F)c(-c3ccc(C(F)(F)F)n(C)c3=O)cc21 [Compound No. 2-1, 3-[7-fluoro-2,3-dihydro-4-(2-propynyl)-1,4-benzoxazin-3-on-6-yl]-1-methyl-6-trifluoromethyl-2(1H)-pyridone]	5	5	5	5	5															
Cn1cc(-c2cc(Oc3ccccc3)c(Cl)cc2F)c(=O)cc1C(F)(F)F [Compound No. 6-19, 5-(4-chloro-2-fluoro-5-phenoxyphenyl)-1-methyl-2-trifluoromethyl-4(1H)-pyridone]	5	5	5	5	5															
Cc1cc2c(-c3cn(C)c(C(F)(F)F)cc3=O)c(F)cc(Cl)c2o1 [Compound No. 9-1, 5-(7-chloro-5-fluoro-2-methylbenzofuran-4-yl)-1-methyl-2-trifluoromethyl-4(1H)-pyridone]	5	5	5	5	5															
